Literature values as cited in patent publication US9265822B2 (priority 2009, dated 2016).

Tested on: 2009 H1N1 swine flu virus

Question: Which “resistance or susceptibility of the virus” value (shortened to “resistance or susceptibility”) does the source give for `NC12CC3CC(CC(C3)C1)C2` [amantadine] here?
Answer: resistant

Question: Which “resistance or susceptibility” value does the source give for `CCOC(=O)C1=C[C@@H](OC(CC)CC)[C@H](NC(C)=O)[C@@H](N)C1` [oseltamivir] here?
Answer: susceptible

Question: With `CC(N)C12CC3CC(CC(C3)C1)C2` (stereo not shown) [rimantadine] as the compound, how does the “resistance or susceptibility” value read?
Answer: resistant

Question: Which “resistance or susceptibility” value does the source give for `CC(=O)N[C@H]1[C@H]([C@H](O)[C@H](O)CO)OC(C(=O)O)=C[C@@H]1N=C(N)N` [zanamivir] here?
Answer: susceptible
